The assay has as its target REV-ERBα LBD (Homo sapiens, UniProt P20393, DEL324-422). Put plainly: biochemical. The note with it: FRET assay; 6xHistag-REV-ERBα LBD with FITC-labeled SMRT corepressor peptide; read-out: REVERBα (Agonism of REV-ERBα, EC50). A digest of the protocol: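 TR-FRET corepressor recruitment: 4 nM His-tagged human REV-ERBα LBD (residues 281-614 Δ324-422, or 381-579), 1 nM Tb-anti-His antibody and 400 nM FITC-SMRT peptide in pH 7.4 phosphate buffer with DTT; ligands in triplicate, 2 h at 4° C. 520/495 nm ratio fitted to sigmoidal dose-response for EC50.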
REV-ERBα LBD, sequence (P20393 with tags, fused parts or gaps DEL324-422): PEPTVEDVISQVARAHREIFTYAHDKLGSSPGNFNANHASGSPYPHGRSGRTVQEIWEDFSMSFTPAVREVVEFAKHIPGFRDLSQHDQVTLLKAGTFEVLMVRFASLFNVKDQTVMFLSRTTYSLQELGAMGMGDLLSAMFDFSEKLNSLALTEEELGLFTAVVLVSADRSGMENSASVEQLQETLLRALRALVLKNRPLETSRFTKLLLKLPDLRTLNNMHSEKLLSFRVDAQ
REV-ERBα LBD, sequence (Q9Y618 2335-2356 partner limits assumed): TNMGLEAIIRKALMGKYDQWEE
The EC50 is the concentration that produces a half-maximal response. As to `Cc1cc(C(F)(F)F)c(-c2cc3c(cc2F)c([C@H](NS(=O)(=O)C2CC2)C(F)F)cn3CC(C)(C)C)cn1` [Compound 140, (S)—N-(2,2-difluoro-1-(5-fluoro-6-(6-methyl-4-(trifluoromethyl)pyridin-3-yl)-1-neopentyl-1H-indol-3-yl)ethyl)cyclopropanesulfonamide], the EC50 was below 0.1 µM.

Take `Cc1cnc(C(F)(F)F)c(-c2cc3c(cc2F)c([C@H](NS(=O)(=O)C2CC2)C(F)F)cn3CC(C)(C)C)c1` [Compound 141, (S)—N-(2,2-difluoro-1-(5-fluoro-6-(5-methyl-2-(trifluoromethyl)pyridin-3-yl)-1-neopentyl-1H-indol-3-yl)ethyl)cyclopropanesulfonamide]: the EC50 is below 0.1 µM.

Regarding `Cc1cnc(C(F)(F)F)c(-c2nc3c(cc2F)c([C@H](NS(=O)(=O)C2CC2)C(F)F)cn3CC(C)(C)C)c1` [Compound 142, (S)—N-(2,2-difluoro-1-(5-fluoro-6-(5-methyl-2-(trifluoromethyl)pyridin-3-yl)-1-neopentyl-1H-pyrrolo[2,3-b]pyridin-3-yl)ethyl)cyclopropanesulfonamide], the EC50 was below 0.1 µM.

Take `CC(C)(C)Cn1cc([C@H](NS(=O)(=O)C2CC2)C(F)F)c2cc(F)c(-c3cc(Cl)cnc3C(F)(F)F)cc21` [Compound 143, (S)—N-(1-(6-(5-chloro-2-(trifluoromethyl)pyridin-3-yl)-5-fluoro-1-neopentyl-1H-indol-3-yl)-2,2-difluoroethyl)cyclopropanesulfonamide]: the EC50 was below 0.1 µM.

Turning to `Cc1cnc(-c2cc3c(cc2F)c([C@H](NS(=O)(=O)C2CC2)C(F)F)cn3CC(C)(C)C)c(C(F)(F)F)n1` [Compound 144, (S)—N-(2,2-difluoro-1-(5-fluoro-6-(5-methyl-3-(trifluoromethyl)pyrazin-2-yl)-1-neopentyl-1H-indol-3-yl)ethyl)cyclopropanesulfonamide], the EC50 was below 0.1 µM.

For the molecule `CC(C)(C)Cn1cc([C@H](NS(=O)(=O)C2CC2)C(F)F)c2cc(F)c(-c3cccnc3C(F)(F)F)nc21` [Compound 145, (S)—N-(2,2-difluoro-1-(5-fluoro-1-neopentyl-6-(2-(trifluoromethyl)pyridin-3-yl)-1H-pyrrolo[2,3-b]pyridin-3-yl)ethyl)cyclopropanesulfonamide], the EC50 is below 0.1 µM.

As for `O=S(=O)(N[C@@H](c1cn(C2CCC2)c2cc(-c3cccnc3C(F)(F)F)c(F)cc12)C(F)F)C1CC1` [Compound 146, (S)—N-(1-(1-cyclobutyl-5-fluoro-6-(2-(trifluoromethyl)pyridin-3-yl)-1H-indol-3-yl)-2,2-difluoroethyl)cyclopropanesulfonamide], the 50% effective concentration (EC50) was below 0.1 µM.

In the case of `O=S(=O)(N[C@@H](c1cn(C2CCC2)c2nc(-c3cccnc3C(F)(F)F)c(F)cc12)C(F)F)C1CC1` [Compound 147], the EC50 was below 0.1 µM.

Regarding `CC(C)(C)Cn1cc([C@H](NS(=O)(=O)C2CC2)C(F)F)c2cc(F)c(-c3cc(F)cnc3C(F)(F)F)nc21` [Compound 148, (S)—N-(2,2-difluoro-1-(5-fluoro-6-(5-fluoro-2-(trifluoromethyl)pyridin-3-yl)-1-neopentyl-1H-pyrrolo[2,3-b]pyridin-3-yl)ethyl)cyclopropanesulfonamide], the EC50 was below 0.1 µM.

With `O=S(=O)(N[C@@H](c1cn(C2CCC2)c2cc(-c3cc(F)cnc3C(F)(F)F)c(F)cc12)C(F)F)C1CC1` [Compound 149, (S)—N-(1-(1-cyclobutyl-5-fluoro-6-(5-fluoro-2-(trifluoromethyl)pyridin-3-yl)-1H-indol-3-yl)-2,2-difluoroethyl)cyclopropanesulfonamide], the EC50 was below 0.1 µM.

With `O=S(=O)(N[C@@H](c1cn(C2CCC2)c2nc(-c3cc(F)cnc3C(F)(F)F)c(F)cc12)C(F)F)C1CC1` [Compound 150, (S)—N-(1-(1-cyclobutyl-5-fluoro-6-(5-fluoro-2-(trifluoromethyl)pyridin-3-yl)-1H-pyrrolo[2,3-b]pyridin-3-yl)-2,2-difluoroethyl)cyclopropanesulfonamide], the EC50 is below 0.1 µM.

Take `N#CC1CC(n2cc([C@H](NS(=O)(=O)C3CC3)C(F)F)c3cc(F)c(-c4cc(F)cnc4C(F)(F)F)cc32)C1` (stereo partly drawn) [Compound 151, (S)—N-(1-(1-(3-cyanocyclobutyl)-5-fluoro-6-(5-fluoro-2-(trifluoromethyl)pyridin-3-yl)-1H-indol-3-yl)-2,2-difluoroethyl)cyclopropanesulfonamide]: the EC50 was below 0.1 µM.

Take `O=S(=O)(N[C@@H](c1cn(C2CNC2)c2cc(-c3ccc(F)cc3C(F)(F)F)c(F)cc12)C(F)F)C1CC1` [Compound 152, (S)—N-(1-(1-(azetidin-3-yl)-5-fluoro-6-(4-fluoro-2-(trifluoromethyl)phenyl)-1H-indol-3-yl)-2,2-difluoroethyl)cyclopropanesulfonamide]: the EC50 is above 1 µM.

With `CC(C)(C)Cn1cc([C@H](NS(=O)(=O)C2CC2)C(F)F)c2cc(F)c(-c3ccc(F)cc3C(F)(F)F)nc21` [Compound 153, (S)—N-(2,2-difluoro-1-(5-fluoro-6-(4-fluoro-2-(trifluoromethyl)phenyl)-1-neopentyl-1H-pyrrolo[2,3-b]pyridin-3-yl)ethyl)cyclopropanesulfonamide], the EC50 is below 0.1 µM.

Take `O=S(=O)(N[C@@H](c1cn(C2CCC2)c2cc(-c3ccc(F)cc3C(F)(F)F)c(F)cc12)C(F)F)C1CC1` [Compound 154, (S)—N-(1-(1-cyclobutyl-5-fluoro-6-(4-fluoro-2-(trifluoromethyl)phenyl)-1H-indol-3-yl)-2,2-difluoroethyl)cyclopropanesulfonamide]: the EC50 is below 0.1 µM.

Consider `O=S(=O)(N[C@@H](c1cn(C2CCC2)c2nc(-c3ccc(F)cc3C(F)(F)F)c(F)cc12)C(F)F)C1CC1` [Compound 155, (S)—N-(1-(1-cyclobutyl-5-fluoro-6-(4-fluoro-2-(trifluoromethyl)phenyl)-1H-pyrrolo[2,3-b]pyridin-3-yl)-2,2-difluoroethyl)cyclopropanesulfonamide], for which the half-maximal effective concentration (EC50) is below 0.1 µM.

As to `O=S(=O)(N[C@@H](c1cn(C2CCC2)c2cc(-c3ncc(F)cc3C(F)(F)F)c(F)cc12)C(F)F)C1CC1` [Compound 156, (S)—N-(1-(1-cyclobutyl-5-fluoro-6-(5-fluoro-3-(trifluoromethyl)pyridin-2-yl)-1H-indol-3-yl)-2,2-difluoroethyl)cyclopropanesulfonamide], the EC50 was below 0.1 µM.

For the molecule `Cc1cnc(C(F)(F)F)c(-c2nc3c(cc2F)c([C@H](NS(=O)(=O)C2CC2)C(F)F)cn3C2CCC2)c1` [Compound 157, (S)—N-(1-(1-cyclobutyl-5-fluoro-6-(5-methyl-2-(trifluoromethyl)pyridin-3-yl)-1H-pyrrolo[2,3-b]pyridin-3-yl)-2,2-difluoroethyl)cyclopropanesulfonamide], the EC50 was below 0.1 µM.

As to `N#Cc1cccc(C(F)(F)F)c1-c1nc2c(cc1F)c([C@H](NS(=O)(=O)C1CC1)C(F)F)cn2C1CCC1` [Compound 158, N-((1S)-1-(6-(2-cyano-6-(trifluoromethyl)phenyl)-1-cyclobutyl-5-fluoro-1H-pyrrolo[2,3-b]pyridin-3-yl)-2,2-difluoroethyl)cyclopropanesulfonamide], the EC50 is below 0.1 µM.

Turning to `N#Cc1nccc(C(F)(F)F)c1-c1cc2c(cc1F)c([C@H](NS(=O)(=O)C1CC1)C(F)F)cn2C1CCC1` [Compound 159, N-((1S)-1-(6-(2-cyano-4-(trifluoromethyl)pyridin-3-yl)-1-cyclobutyl-5-fluoro-1H-indol-3-yl)-2,2-difluoroethyl)cyclopropanesulfonamide], the EC50 is below 0.1 µM.

The record behind these values is patent publication US20260285846A1, “REV-ERB AGONISTS FOR TH17-MEDIATED INFLAMMATORY DISORDERS” (UNIVERSITY OF FLORID RESEARCH FOUNDATION, iNCORPORATED, priority 2021, published 2026).
